Here are results for 15 compounds from patent publication US20240360178A1, “MACROCYCLIC IMMUNOMODULATORS” (Bristol-Myers Squibb Company, priority 2021, published 2024).

This experiment addresses T1, human PD-1 (Jurkat-PD-1 cells) / PE-labeled human PD-L1-Ig (Homo sapiens, UniProt Q15116).
T1 construct: expressed in transfected cells; host or cells: Jurkat cell line over-expressing human PD-1
Nature of the experiment: Jurkat-PD-1 Cell Binding High-Content Screening Assay (CBA); Jurkat hPD1-PDL1 assay. The settings on record: Jurkat cell line over-expressing human PD-1; PE-labeled PD-L1-Ig 20 nM final; compound incubated 2 hours at 37° C.; read-out: Jurkat HPD1-PDL1 IC50. The procedure, abridged: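 Jurkat cells over-expressing human PD-1, seeded in DMEM with 10% fetal calf serum, were preincubated with compound for 2 hours at 37° C. PE-labeled human PD-L1-Ig was then added at 20 nM final, and cell-bound fluorescence was read by high-content imaging.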

Positions of bridges follow the written chain, without caps; N, C: chain ends. Non-standard residues stand in square brackets, D forms with d. Residues, ends and D or L forms follow the SMILES beside them. ξ: configuration not given here. *: point of attachment. Phe(4-COOH) = N[C@@H](Cc1ccc(C(=O)O)cc1)C(=O)O; Bip = N[C@@H](Cc1ccc(-c2ccccc2)cc1)C(=O)O; Phe(3-CN) = N#Cc1cccc(C[C@H](N)C(=O)O)c1; Val(3-OH) = CC(C)(O)[C@H](N)C(=O)O; NMeF = CN[C@@H](Cc1ccccc1)C(=O)O; hArg = N=C(N)NCCCC[C@H](N)C(=O)O; 4Pal = N[C@@H](Cc1ccncc1)C(=O)O; Cha = N[C@@H](CC1CCCCC1)C(=O)O; Carboxymethyl = O=C(O)C*; NMeA = CN[C@@H](C)C(=O)O; Orn = NCCC[C@H](N)C(=O)O; Dab = NCC[C@H](N)C(=O)O; Dap = NC[C@H](N)C(=O)O; ξV = CC(C)C(N)C(=O)O; Sar = CNCC(=O)O

T1 sequence (Q15116 25-288): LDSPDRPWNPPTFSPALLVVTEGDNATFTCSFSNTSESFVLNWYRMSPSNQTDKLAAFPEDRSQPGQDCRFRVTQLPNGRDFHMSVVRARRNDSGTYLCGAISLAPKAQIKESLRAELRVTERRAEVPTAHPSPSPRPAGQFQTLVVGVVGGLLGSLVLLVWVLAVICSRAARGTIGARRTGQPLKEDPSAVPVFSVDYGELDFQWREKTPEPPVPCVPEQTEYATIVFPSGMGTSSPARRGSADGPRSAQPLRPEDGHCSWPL

With `CC(C)C1NC(=O)[C@H](Cc2c[nH]c3ccccc23)NC(=O)[C@H](CC(=O)O)NC(=O)[C@H](Cc2ccc(C(=O)O)cc2)NC(=O)[C@H](Cc2ccc(OCC(=O)O)cc2)NC(=O)CSC[C@@H](C(=O)N[C@@H](C)C(N)=O)NC(=O)[C@H]([C@@H](C)O)NC(=O)[C@H](C(C)C)NC(=O)[C@H](CC2CCCCC2)NC(=O)[C@H](CCN)NC(=O)[C@H](Cc2ccccc2)N(C)C(=O)[C@H](CCCN)NC(=O)[C@H](CCC(=O)O)NC(=O)[C@H](Cc2ccc(-c3ccccc3)cc2)NC1=O` (stereo partly drawn) [Example 1443] ({CH2CO}-Y(Carboxymethyl)[Phe(4-COOH)]DW[ξV][Bip]E[Orn][NMeF][Dab][Cha]VTCA-NH2; thioether N-14), the IC50 (commonly the midpoint of a concentration-inhibition curve) was 80 nM.
On to `CC(C)C[C@@H]1NC(=O)[C@H](Cc2c[nH]c3ccccc23)NC(=O)[C@H](CC(=O)O)NC(=O)[C@H](Cc2ccc(O)cc2)NC(=O)[C@H](Cc2ccccc2)NC(=O)CSC[C@@H](C(=O)N[C@@H](C)C(N)=O)NC(=O)[C@H](CO)NC(=O)[C@H](C(C)C)NC(=O)[C@H](CC(C)C)NC(=O)[C@H](CCCCN)NC(=O)CN(C)C(=O)[C@H](C)N(C)C(=O)[C@H](CCC(=O)O)NC(=O)[C@H](Cc2ccc(-c3ccccc3)cc2)NC1=O` [Example 1134] ({CH2CO}-FYDWL[Bip]E[NMeA][Sar]KLVSCA-NH2; thioether N-14), for which the concentration for half-maximal inhibition (IC50) was determined as 540 nM.
Take `CC(C)C[C@@H]1NC(=O)[C@H](Cc2c[nH]c3ccccc23)NC(=O)[C@H](CC(=O)O)NC(=O)[C@H](Cc2ccc(O)cc2)NC(=O)[C@H](Cc2ccccc2)NC(=O)CSC[C@@H](C(=O)NCC(N)=O)NC(=O)[C@H]([C@@H](C)O)NC(=O)[C@H](C(C)C)NC(=O)[C@H](CC(C)C)NC(=O)[C@H](CCN)NC(=O)[C@H]2CCCN2C(=O)[C@H](CN)NC(=O)[C@H](C(C)C)NC(=O)[C@H](Cc2ccc(-c3ccccc3)cc2)NC1=O` [Example 1407] ({CH2CO}-FYDWL[Bip]V[Dap][dP][Dab]LVTCG-NH2; thioether N-14): the concentration for half-maximal inhibition (IC50) amounted to 280 nM.
The value for `CC(C)C[C@@H]1NC(=O)[C@H](CCCNC(=N)N)NC(=O)[C@H](Cc2ccccc2)N(C)C(=O)[C@H](C)N(C)C(=O)[C@H](CCCNC(=N)N)NC(=O)[C@H](Cc2ccc(-c3ccccc3)cc2)NC(=O)[C@H](C(C)C)NC(=O)[C@H](Cc2c[nH]c3ccccc23)NC(=O)[C@H](CC(=O)O)NC(=O)[C@H](Cc2ccc(O)cc2)NC(=O)[C@H](Cc2ccccc2)NC(=O)CSC[C@@H](C(=O)NCC(N)=O)NC(=O)[C@H](CCCN)NC(=O)[C@H](C(C)C)NC1=O` [Example 1338] ({CH2CO}-FYDWV[Bip]R[NMeA][NMeF]RLV[Orn]CG-NH2; thioether N-14) was 110 nM; that for `CC(C)C[C@@H]1NC(=O)[C@H](CCCNC(=N)N)NC(=O)[C@H](Cc2ccccc2)N(C)C(=O)[C@H](C)N(C)C(=O)[C@H](CCCCNC(=N)N)NC(=O)[C@H](Cc2ccc(-c3ccccc3)cc2)NC(=O)[C@H](C(C)C)NC(=O)[C@H](Cc2c[nH]c3ccccc23)NC(=O)[C@H](CC(=O)O)NC(=O)[C@H](Cc2ccc(O)cc2)NC(=O)[C@H](Cc2ccccc2)NC(=O)CSC[C@@H](C(=O)NCC(N)=O)NC(=O)[C@H](CO)NC(=O)[C@H](C(C)C)NC1=O` [Example 1244] ({CH2CO}-FYDWV[Bip][hArg][NMeA][NMeF]RLVSCG-NH2; thioether N-14) was 190 nM; that for `CC(C)C[C@@H]1NC(=O)[C@H](CCCN)NC(=O)[C@H](Cc2ccccc2)N(C)C(=O)[C@H](C)N(C)C(=O)[C@H](CCC(=O)O)NC(=O)[C@H](Cc2ccc(-c3ccccc3)cc2)NC(=O)[C@H](C(C)C)NC(=O)[C@H](Cc2c[nH]c3ccccc23)NC(=O)[C@H](CC(=O)O)NC(=O)[C@H](Cc2ccc(O)cc2)NC(=O)[C@H](Cc2ccccc2)NC(=O)CSC[C@@H](C(=O)N[C@@H](CCC(=O)O)C(N)=O)NC(=O)[C@H]([C@@H](C)O)NC(=O)[C@H](C(C)C)NC1=O` [Example 1350] ({CH2CO}-FYDWV[Bip]E[NMeA][NMeF][Orn]LVTCE-NH2; thioether N-14) was 210 nM.
On to `CC(C)C[C@@H]1NC(=O)[C@H](Cc2c[nH]c3ccccc23)NC(=O)[C@H](CC(=O)O)NC(=O)[C@H](Cc2ccc(O)cc2)NC(=O)[C@H](Cc2ccccc2)NC(=O)CSC[C@@H](C(=O)N[C@@H](C)C(N)=O)NC(=O)[C@H](CO)NC(=O)[C@H](C(C)C)NC(=O)[C@H](CC(C)C)NC(=O)[C@H](CC(N)=O)NC(=O)[C@H]2CCCN2C(=O)[C@H](CCCN)NC(=O)[C@H](C(C)C)NC(=O)[C@H](Cc2ccc(-c3ccccc3)cc2)NC1=O` [Example 1200] ({CH2CO}-FYDWL[Bip]V[Orn][dP]NLVSCA-NH2; thioether N-14), for which the IC50 amounted to 30 nM.
On to `CC(C)C[C@@H]1NC(=O)[C@H](Cc2c[nH]c3ccccc23)NC(=O)[C@H](CC(=O)O)NC(=O)[C@H](Cc2ccc(O)cc2)NC(=O)[C@H](Cc2cnc[nH]2)NC(=O)CSC[C@@H](C(=O)NCC(N)=O)NC(=O)[C@H](CO)NC(=O)[C@H](C(C)C)NC(=O)[C@H](CC(C)C)NC(=O)[C@H](CC(N)=O)NC(=O)CN(C)C(=O)[C@H](C)N(C)C(=O)[C@H](C(C)C)NC(=O)[C@H](Cc2ccc(-c3ccccc3)cc2)NC1=O` [Example 1150] ({CH2CO}-HYDWL[Bip]V[NMeA][Sar]NLVSCG-NH2; thioether N-14), for which the IC50 is 690 nM.
Consider `CC(C)C[C@@H]1NC(=O)[C@H](CCCNC(=N)N)NC(=O)[C@H](Cc2ccccc2)N(C)C(=O)[C@H](C)N(C)C(=O)[C@H](CCCNC(=N)N)NC(=O)[C@H](Cc2ccc(-c3ccccc3)cc2)NC(=O)[C@H](C(C)C)NC(=O)[C@H](Cc2c[nH]c3ccccc23)NC(=O)[C@H](CC(=O)O)NC(=O)[C@H](Cc2ccc(O)cc2)NC(=O)[C@H](CCCCN)NC(=O)CSC[C@@H](C(=O)NCC(N)=O)NC(=O)[C@H](CO)NC(=O)[C@H](C(C)C)NC1=O` [Example 1211] ({CH2CO}-KYDWV[Bip]R[NMeA][NMeF]RLVSCG-NH2; thioether N-14), for which the IC50 was found to be 650 nM.
In the case of `CC(C)C[C@@H]1NC(=O)[C@H](CCCNC(=N)N)NC(=O)[C@H](Cc2ccccc2)N(C)C(=O)[C@H](C)N(C)C(=O)[C@H](CCCNC(=N)N)NC(=O)[C@H](Cc2ccc(-c3ccccc3)cc2)NC(=O)[C@H](C(C)C)NC(=O)[C@H](Cc2c[nH]c3ccccc23)NC(=O)[C@H](CC(=O)O)NC(=O)[C@H](Cc2ccc(O)cc2)NC(=O)[C@H](Cc2ccccc2)N(C)C(=O)CSC[C@@H](C(=O)NCC(N)=O)NC(=O)[C@H](CO)NC(=O)[C@H](C(C)C)NC1=O` [Example 1250] ({CH2CO}-[NMeF]YDWV[Bip]R[NMeA][NMeF]RLVSCG-NH2; thioether N-14), the IC50 is 320 nM.
On to `CC(C)C[C@@H]1NC(=O)[C@H](Cc2c[nH]c3ccccc23)NC(=O)[C@H](CC(=O)O)NC(=O)[C@H](Cc2cccc(C#N)c2)NC(=O)[C@H](Cc2ccncc2)NC(=O)CSC[C@@H](C(=O)N[C@@H](CCN)C(N)=O)NC(=O)[C@H](CO)NC(=O)[C@H](C(C)(C)O)NC(=O)[C@H](CC2CCCCC2)NC(=O)[C@H](CCN)NC(=O)[C@H]2CCCN2C(=O)[C@H](C)N(C)C(=O)[C@H](C(C)C)NC(=O)[C@H](Cc2ccc(-c3ccccc3)cc2)NC1=O` [Example 1183] ({CH2CO}-[4Pal][Phe(3-CN)]DWL[Bip]V[NMeA][dP][Dab][Cha][Val(3-OH)]SC[Dab]-NH2; thioether N-14), for which the 50% inhibitory concentration (IC50) worked out at 40 nM.
Take `CC(C)C[C@@H]1NC(=O)[C@H](Cc2c[nH]c3ccccc23)NC(=O)[C@H](CC(=O)O)NC(=O)[C@H](Cc2ccc(O)cc2)NC(=O)[C@H](Cc2ccccc2)NC(=O)CSC[C@@H](C(=O)N[C@@H](C)C(N)=O)NC(=O)[C@H](CO)NC(=O)[C@H](C(C)C)NC(=O)[C@H](CC(C)C)NC(=O)[C@H](CCN)NC(=O)[C@H]2CCCN2C(=O)[C@H](CN)NC(=O)[C@H](C(C)C)NC(=O)[C@H](Cc2ccc(-c3ccccc3)cc2)NC1=O` [Example 1408] ({CH2CO}-FYDWL[Bip]V[Dap][dP][Dab]LVSCA-NH2; thioether N-14): the IC50 stood at 90 nM.
With `CC(C)C[C@@H]1NC(=O)[C@H](CCCNC(=N)N)NC(=O)[C@H](Cc2ccccc2)N(C)C(=O)[C@H](CCCNC(=N)N)NC(=O)[C@H](CCCNC(=N)N)NC(=O)[C@H](Cc2ccc(-c3ccccc3)cc2)NC(=O)[C@H](C(C)C)NC(=O)[C@H](Cc2c[nH]c3ccccc23)NC(=O)[C@H](CC(=O)O)NC(=O)[C@H](Cc2ccc(O)cc2)NC(=O)[C@H](Cc2cnc[nH]2)NC(=O)CSC[C@@H](C(=O)NCC(N)=O)NC(=O)[C@H](CO)NC(=O)[C@H](C(C)C)NC1=O` [Example 1315] ({CH2CO}-HYDWV[Bip]RR[NMeF]RLVSCG-NH2; thioether N-14), the IC50 was 530 nM.
Consider `CC(C)C[C@@H]1NC(=O)[C@H](Cc2c[nH]c3ccccc23)NC(=O)[C@H](CC(=O)O)NC(=O)[C@H](Cc2ccc(O)cc2)NC(=O)[C@H](Cc2ccccc2)NC(=O)CSC[C@@H](C(=O)NCC(N)=O)NC(=O)[C@H]([C@@H](C)O)NC(=O)[C@H](C(C)C)NC(=O)[C@H](CC(C)C)NC(=O)[C@H](CC(N)=O)NC(=O)[C@H]2CCCN2C(=O)[C@H](C)N(C)C(=O)[C@H](C(C)C)NC(=O)[C@H](Cc2ccc(-c3ccccc3)cc2)NC1=O` [Example 1395] ({CH2CO}-FYDWL[Bip]V[NMeA][dP]NLVTCG-NH2; thioether N-14), for which the 50% inhibitory concentration (IC50) came out at 160 nM.
In the case of `CC[C@H](C)[C@@H]1NC(=O)[C@H](Cc2c[nH]c3ccccc23)NC(=O)[C@H](CC(=O)O)NC(=O)[C@H](Cc2ccc(O)cc2)NC(=O)[C@H](Cc2ccccc2)NC(=O)CSC[C@@H](C(=O)NCC(N)=O)NC(=O)[C@H](CO)NC(=O)[C@H](C(C)C)NC(=O)[C@H](CC(C)C)NC(=O)[C@H](CCCNC(=N)N)NC(=O)[C@H](Cc2ccccc2)N(C)C(=O)[C@H](C)N(C)C(=O)[C@H](CCCNC(=N)N)NC(=O)[C@H](Cc2ccc(-c3ccccc3)cc2)NC1=O` [Example 1284] ({CH2CO}-FYDWI[Bip]R[NMeA][NMeF]RLVSCG-NH2; thioether N-14) it was 820 nM.
